Source: patent publication US20240316079A1, “USE OF AKR1C3-ACTIVATED COMPOUND” (OBI PHARMA, INC., priority 2021, published 2024)

Tests used:
recombinant human AKR1C3 [1] = target: T1, recombinant human AKR1C3 (Homo sapiens, UniProt P42330); experiment: AKR1C3-dependent activation of 3424 (2660 production, LC-MS/MS); type: biochemical; conditions: incubation with AKR1C3, n = 3, mean ± SD
T1 construct: purchased Abcam (Cambridge, MA)
T1 sequence (P42330 1-323): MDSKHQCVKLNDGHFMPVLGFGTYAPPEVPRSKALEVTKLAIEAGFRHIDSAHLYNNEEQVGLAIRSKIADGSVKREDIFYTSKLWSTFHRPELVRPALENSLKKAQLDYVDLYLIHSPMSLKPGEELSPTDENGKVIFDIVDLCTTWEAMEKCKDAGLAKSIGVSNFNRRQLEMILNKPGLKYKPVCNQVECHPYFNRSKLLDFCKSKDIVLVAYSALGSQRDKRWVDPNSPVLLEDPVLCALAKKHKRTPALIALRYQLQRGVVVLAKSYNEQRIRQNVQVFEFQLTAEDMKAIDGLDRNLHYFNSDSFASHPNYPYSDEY
Description: The reaction was incubated at 25° C. and terminated at various time points by adding acetonitrile and methanol (at a ratio of 9 to 1) and subjected for LC-MS/MS analysis. For enzyme kinetic analysis, the activity was determined with a SpectraMax M2^e spectrophotometer (Molecular Devices, LLC, San Jose, CA) by measuring the decrease in absorbance of the NADPH at 340 nm (E=6270 M^−1 cm^−1). After the initiation of the reaction by addition of substrates, the reactions were monitored at 30 s intervals at 25° C. The non-substrate reaction rate was also monitored as background and its slope was used to determine the initial velocity of the reaction. The kinetic data reported were the average of triplicate measurements. For AKR1C3-mediated 3424 metabolism, LC/MS/MS was performed using a Sciex API-4000 Qtrap (ABSciex, LLC, Framingham, MA) mass spectrometer coupled to an Agilent 1200 HPLC system (Agilent Technologies, Santa Clara, CA). […] The column oven temperature was 40° C. and the sample injection volume was 2 μL. The mass spectra were obtained in positive MRM mode. In positive ion mode, the ion spray voltage was set at 4500 V, declustering potential at 80 V, collision energy at 20 V, source temperature at 350° C., curtain gas at 10 psi and the source gas 1 and 2 both at 60 psi. […] For 2660 analysis, normal phase liquid chromatographic separation was performed with Waters Atlantis HILIC Silica column (2.1 mm×100 mm, 3 μm, Waters Corp., Milford, MA) in a total run time of 9 min using a flow rate of 0.3 mL/min. The mobile phase A consisted of 1 mM ammonium formate in water and mobile phase B using ACN. […] The column oven temperature was 40° C. and the sample injection volume was 2 μL. The mass spectra were obtained in negative MRM mode. In negative ion mode, the ion spray voltage was set at −4500 V, declustering potential at −60 V, collision energy at −30 V, source temperature at 350° C., curtain gas at 10 psi and the source gas 1 and 2 both at 60 psi. […] The peak area ratio for each MRM transition (peak area of analyte/peak area of analyte-IS) of calibration standards and samples were used for quantitative analysis using Analyst 1.6 software (ABSciex, Framingham, MA).

recombinant human AKR1C4 = target: T2, recombinant human AKR1C4 (Homo sapiens, UniProt P17516); experiment: Incubation of 3424 with AKR1C4 (2660 production, LC-MS/MS); type: biochemical
T2 construct: purchased Sigma
T2 sequence (P17516 whole entry): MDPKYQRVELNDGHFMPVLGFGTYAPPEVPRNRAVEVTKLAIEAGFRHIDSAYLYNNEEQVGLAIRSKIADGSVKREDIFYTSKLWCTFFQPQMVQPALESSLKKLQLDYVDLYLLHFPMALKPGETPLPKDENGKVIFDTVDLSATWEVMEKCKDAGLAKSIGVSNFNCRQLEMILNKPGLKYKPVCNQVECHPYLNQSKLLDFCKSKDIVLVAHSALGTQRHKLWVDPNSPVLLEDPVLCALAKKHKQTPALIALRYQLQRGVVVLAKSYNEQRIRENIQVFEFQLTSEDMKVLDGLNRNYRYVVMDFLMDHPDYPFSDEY

recombinant human AKR1C3 [2] = target: T1, recombinant human AKR1C3; experiment: Kinetic analysis of AKR1C3 towards various substrates (NADPH absorbance 340 nm); type: biochemical; conditions: substrate of AKR1C3, 25° C., triplicate
Description: The reaction was incubated at 25° C. and terminated at various time points by adding acetonitrile and methanol (at a ratio of 9 to 1) and subjected for LC-MS/MS analysis. For enzyme kinetic analysis, the activity was determined with a SpectraMax M2^e spectrophotometer (Molecular Devices, LLC, San Jose, CA) by measuring the decrease in absorbance of the NADPH at 340 nm (E=6270 M^−1 cm^−1). After the initiation of the reaction by addition of substrates, the reactions were monitored at 30 s intervals at 25° C. The non-substrate reaction rate was also monitored as background and its slope was used to determine the initial velocity of the reaction. The kinetic data reported were the average of triplicate measurements.

SNU-475 = experiment: In vitro proliferation assay, liver cancer cell line SNU-475; type: cell-based; conditions: Homo sapiens, 96 hours of drug exposure, AKR1C3 protein high, read-out: 3424 IC50
Description: (§1) IC50 was calculated as described above.

SNU-449 = experiment: In vitro proliferation assay, liver cancer cell line SNU-449; type: cell-based; conditions: Homo sapiens, 96 hours of drug exposure, AKR1C3 protein high, read-out: 3424 IC50
Description: as §1

C3A = experiment: In vitro proliferation assay, liver cancer cell line C3A; type: cell-based; conditions: Homo sapiens, 96 hours of drug exposure, AKR1C3 protein high, read-out: 3424 IC50
Description: as §1

SNU-182 = experiment: In vitro proliferation assay, liver cancer cell line SNU-182; type: cell-based; conditions: Homo sapiens, 96 hours of drug exposure, AKR1C3 protein Low, read-out: 3424 IC50
Description: as §1

SK-HEP-1 = experiment: In vitro proliferation assay, liver cancer cell line SK-HEP-1; type: cell-based; conditions: Homo sapiens, SK-HEP1, 96 hours of drug exposure, AKR1C3 protein Low, read-out: 3424 IC50
Description: as §1

NCI-H1563 = experiment: In vitro proliferation assay, NSCLC cell line NCI-H1563; type: cell-based; conditions: Homo sapiens, 72 hours of drug exposure, read-out: 3424 IC50
Description: as §1

CAL12T = experiment: In vitro proliferation assay, NSCLC cell line CAL12T; type: cell-based; conditions: Homo sapiens, CAL-12T, 72 hours of drug exposure, read-out: 3424 IC50
Description: as §1

VCaP xenograft = experiment: Castration-resistant prostate cancer VCaP xenograft model
Description: Death and observed clinical signs were recorded on the basis of the numbers of animals within each subset.

C[C@H](OP(=O)(N1CC1)N1CC1)c1ccc([N+](=O)[O-])c(Oc2cccc(C(=O)N(C)C)c2)c1 [Compound 3424, (S)-1-(3-(3-N,N-dimethylaminocarbonyl)phenoxyl-4-mtrophenyl)-1-ethyl-N,N′-bis(ethylene)phosphoramidate]
2660 Concentration (recombinant human AKR1C3 [1]; 3424 concentration 10 μM): 10.71 ± 0.53 µM | 2660 Concentration (recombinant human AKR1C3 [1]; 3424 concentration 20 μM): 14.77 ± 1.44 µM | 2660 Concentration (recombinant human AKR1C3 [1]; 3424 concentration 30 μM): 33.96 ± 1.90 µM | 2660 Concentration (recombinant human AKR1C3 [1]; 3424 concentration 40 μM): 34.30 ± 6.63 µM | 2660 Concentration (recombinant human AKR1C3 [1]; 3424 concentration 50 μM): 34.59 ± 7.44 µM | metabolism by AKR1C4 (recombinant human AKR1C4): not metabolized | 2660 Concentration (recombinant human AKR1C4; 3424 concentration 50 μM, incubation with AKR1C4, BQL: below quantification limit (0.25 ng/mL)): BQL | Kcat (recombinant human AKR1C3 [2]): 0.0107 ± 0.00017 s⁻¹ | Km (recombinant human AKR1C3 [2]; read-out: Km): 12.6 ± 0.28 µM | IC50 (SNU-475): 15 nM | IC50 (SNU-449): 45 nM | IC50 (C3A): 5 nM | IC50 (SNU-182): > 1000 nM | IC50 (SK-HEP-1): > 1000 nM | IC50 (NCI-H1563): 2.5 nM | IC50 (CAL12T): 29.1 nM | TGI (VCaP xenograft; 3424 5 mg/kg weekly IV for 5 doses, castrated male BALB/c nude mice): 148% | tolerability / body weight loss during treatment (VCaP xenograft; VCaP model, data not shown): no significant body weight loss
